In one assay the target is T1, human α1b receptor (Homo sapiens, UniProt P35368).
T1 construct: The entire coding region of α1b (1563 bp); expressed in transfected cells
T1 sequence (P35368 1-520): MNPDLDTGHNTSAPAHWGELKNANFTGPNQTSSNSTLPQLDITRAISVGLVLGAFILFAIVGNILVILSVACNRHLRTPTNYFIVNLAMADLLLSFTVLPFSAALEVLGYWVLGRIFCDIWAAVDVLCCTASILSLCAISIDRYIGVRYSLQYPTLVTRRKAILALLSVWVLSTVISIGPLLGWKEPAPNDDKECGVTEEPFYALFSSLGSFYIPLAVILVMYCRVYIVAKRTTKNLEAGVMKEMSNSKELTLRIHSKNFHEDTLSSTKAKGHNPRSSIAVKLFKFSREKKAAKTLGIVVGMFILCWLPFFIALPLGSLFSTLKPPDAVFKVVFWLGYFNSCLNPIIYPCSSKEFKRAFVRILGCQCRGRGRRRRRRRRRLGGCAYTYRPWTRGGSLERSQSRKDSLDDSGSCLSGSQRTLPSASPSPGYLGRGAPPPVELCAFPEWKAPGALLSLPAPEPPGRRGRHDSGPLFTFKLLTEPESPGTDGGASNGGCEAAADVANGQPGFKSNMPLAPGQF
The experiment in a line: Radioligand binding ([3H]prazosin) at cloned human α1b receptor. Particulars: membranes of transfected LM(tk−) cells, [3H]prazosin 0.5 nM; read-out: Binding affinity hα1b. As to the method: (§1) The activity of compounds at the different human receptors was determined in vitro using cultured cell lines that selectively express the receptor of interest. These cell lines were prepared by transfecting the cloned cDNA or cloned genomic DNA or constructs containing both genomic DNA and cDNA encoding the human α-adrenergic receptors as follows:
α1b Human Adrenergic Receptor
The entire coding region of α1b (1563 bp), including 200 base pairs and 5′ untranslated sequence (5′ UT) and 600 bp of 3′ untranslated sequence (3′ UT), was cloned into the EcoRI site of pCEXV-3 eukaryotic expression vector.
The construct involved ligating the full-length containing EcoRI brainstem cDNA fragment from λ ZapII into the expression vector. Stable cell lines were selected as described above. The cell line used herein was designated L-α1B and was deposited with the American Type Culture Collection, 12301 Parklawn Drive, Rockville, Md. 20852, U.S.A. under the provisions of the Budapest Treaty for the International Recognition of the Deposit of Microorganisms for the Purposes of Patent Procedure. The cell line L-α1B was accorded ATCC Accession No. CR 11139, on Sep. 29, 1992.
(§2) Radioligand Binding Assays for α1 Receptors
(§3) Transfected cells from culture flasks were scraped into 5 ml of 5 mM Tris-HCl, 5 mM EDTA, pH 7.5, and lysed by sonication. The cell lysates were centrifuged at 1000 rpm for 5 min at 4° C., and the supernatant was centrifuged at 30,000×g for 20 min at 4° C. The pellet was suspended in 50 mM Tris-HCl, 1 mM MgCl2, and 0.1% ascorbic acid at pH 7.5. Binding of the α1 antagonist [^3H]prazosin (0.5 nM, specific activity 76.2 Ci/mmol) to membrane preparations of LM(tk−) cells was done in a final volume of 0.25 ml and incubated at 37° C. for 20 min. Nonspecific binding was determined in the presence of 10 μM phentolamine. The reaction was stopped by filtration through GF/B filters using a cell harvester. Inhibition experiments, routinely consisting of 7 concentrations of the tested compounds, were analyzed using a non-linear regression curve-fitting computer program to obtain Ki values.

In a further assay the target is T2, human α1a receptor (Homo sapiens, UniProt P35348).
T2 construct: expressed in transfected cells
T2 sequence (P35348 1-466): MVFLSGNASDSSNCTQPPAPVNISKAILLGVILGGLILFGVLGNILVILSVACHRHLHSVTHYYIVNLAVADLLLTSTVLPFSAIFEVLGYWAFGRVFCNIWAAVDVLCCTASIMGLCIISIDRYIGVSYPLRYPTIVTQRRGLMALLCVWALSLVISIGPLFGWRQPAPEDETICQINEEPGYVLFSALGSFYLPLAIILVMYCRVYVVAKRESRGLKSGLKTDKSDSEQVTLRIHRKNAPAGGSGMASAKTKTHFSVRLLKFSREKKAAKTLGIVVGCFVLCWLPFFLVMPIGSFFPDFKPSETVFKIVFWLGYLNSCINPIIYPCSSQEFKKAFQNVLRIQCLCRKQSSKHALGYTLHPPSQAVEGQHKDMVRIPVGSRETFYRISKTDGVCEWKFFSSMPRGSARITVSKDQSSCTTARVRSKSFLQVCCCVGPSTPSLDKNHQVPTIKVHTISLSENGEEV
The experiment in a line: Radioligand binding ([3H]prazosin) at cloned human α1a receptor. The note with it: hα1a; membranes of transfected LM(tk−) cells, [3H]prazosin 0.5 nM; read-out: Binding affinity hα1a. Here is the method: as §1
α1a Human Adrenergic Receptor
The entire coding region of α1a (1401 bp), including 400 base pairs of 5′ untranslated sequence (5′ UT) and 200 bp of 3′ untranslated sequence (3′ UT), was cloned into the KpnI site of the polylinker-modified pCEXV-3-derived eukaryotic expression vector, EXJ.RH. The construct involved ligating three partial overlapping fragments: a 5′ 0.6 kb HincII genomic clone, a central 1.8 EcoRI hippocampal cDNA clone,. and a 3′ 0.6 Kb PstI genomic clone. The hippocampal cDNA fragment overlaps with the 5′ and 3′ genomic clones so that the HincII and PstI sites at the 5′ and 3′ ends of the cDNA clone, respectively, were utilized for ligation. This full-length clone was cloned into the KpnI site of the expression vector, using the 5′ and 3′ KpnI sites of the fragment, derived from vector (i.e., pBluescript) and 31-untranslated sequences, respectively. Stable cell lines were selected as described above. The stable cell line expressing the human α1a receptor used herein was designated L-α1C (old nomenclature) and was deposited with the American Type Culture Collection, 12301 Parklawn Drive, Rockville, Md. 20852, U.S.A. under the provisions of the Budapest Treaty for the International Recognition of the Deposit of Microorganisms for the Purposes of Patent Procedure. The cell line expressing the human α1a receptor was accorded Accession No. CR 11140, on Sep. 25, 1992.
as §2, §3

Consider six compounds from US6680323B2, “Dihydropyrimidines and uses thereof” (Synaptic Pharmaceutical Corporation, priority 1998, dated 2004).

Structures can show the parent of a compound that is named as a salt.

As for `O=C1OCC2=C1C(c1ccc(F)c(F)c1)N(C(=O)NCCCN1CCC(c3ccccn3)CC1)C(=O)N2` (single isomer, unassigned; (+)) [Compound 8, (+)-1-3-{[4-(3,4-Difluorophenyl)-2,5-dioxo-1,2,5,7-tetrahydro-4H-furo[3,4-d]-pyrimidine-3-carbonyl]amino}-propyl-4-(2-pyridyl)-piperidine], the Ki on human α1b receptor was 1600 nM; on human α1a receptor it was 3 nM.
As for `COCC1=C(C(=O)OC)[C@H](c2ccc(F)c(F)c2)N(C(=O)NCCCO)C(=O)N1` [Compound 1, (+)-1,2,3,6-Tetrahydro-1-(3-hydroxypropyl)carboxamido-5-methoxycarbonyl-4-methoxymethyl-6-(3,4-difluorophenyl)-2-oxo-pyrimidine], the Ki on human α1b receptor is greater than 50000 nM; on human α1a receptor, 260 nM.
On the same counts, the results for `COCC1=C(C(=O)OC)[C@H](c2ccc(F)c(F)c2)N(C(=O)NCCCN2CCC(c3cccc[n+]3[O-])CC2)C(=O)N1` [Compound 2, (+)-1,2,3,6-Tetrahydro-1-{N-[4-(2-pyridyl)piperidin-1-yl]propyl}carboxamido-5-methoxycarbonyl-4-methoxymethyl-6-(3,4-difluorophenyl)-2-oxopyrimidine-pyridine-N-oxide hydrochloride] are 1500 nM and 0.3 nM.
On the same counts, the results for `COCC1=C(C(=O)OC)[C@H](c2ccc(F)c(F)c2)N(C(=O)NCCC[n+]2ccc(-c3ccccn3)cc2)C(=O)N1` [Compound 3, 4-(2-Pyridyl)-1-{3-[5-carboxymethyl-4-methoxymethyl-2-oxo-6(S)-(3,4-difluorphenyl)-1,2,3,6-tetrahydropyrimidin-1-yl]carboxyaminopropyl}pyridinium chloride] are greater than 2000 nM and 212 nM.
On the same counts, the results for `COC(=O)C1=C(CO)NC(=O)N(C(=O)NCCCN2CCC(c3ccccn3)CC2)[C@H]1c1ccc(F)c(F)c1` [Compound 7, (+)-1,2,3,6-Tetrahydro-1-{N-[4-(2-pyridyl)piperidin-1-yl]propyl}carboxamido-5-methoxycarbonyl-4-hydroxymethyl-6-(3,4-difluorophenyl)-2-oxopyrimidine] are 530 nM and 0.8 nM.
In the case of `O=C(O)CCNC(=O)N1C(=O)NC2=C(C(=O)OC2)[C@@H]1c1ccc(F)c(F)c1` [Compound 9], the Ki is greater than 2000 nM at human α1b receptor and greater than 500 nM at human α1a receptor.
